This is an account of results in ChEMBL document CHEMBL5608201, “Discovery and optimization of thiazole-based quorum sensing inhibitors as potent blockers of Pseudomonas aeruginosa pathogenicity” (Eur J Med Chem, 2024).

For series [1], the target named is T1, Transcriptional regulator MvfR (Pseudomonas aeruginosa PA14, UniProt A0A072ZLE6).
T1 sequence (A0A072ZLE6 whole entry): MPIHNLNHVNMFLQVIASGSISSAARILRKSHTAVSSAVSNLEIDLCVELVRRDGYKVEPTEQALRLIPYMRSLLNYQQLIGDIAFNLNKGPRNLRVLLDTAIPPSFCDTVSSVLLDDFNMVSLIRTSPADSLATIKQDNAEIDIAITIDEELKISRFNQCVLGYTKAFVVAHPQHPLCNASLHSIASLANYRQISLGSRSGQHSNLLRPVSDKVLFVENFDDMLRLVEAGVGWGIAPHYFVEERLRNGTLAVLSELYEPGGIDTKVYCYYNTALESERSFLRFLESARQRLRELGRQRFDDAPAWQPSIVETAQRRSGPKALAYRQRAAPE
The experiment in a line: Inverse agonist activity at Pseudomonas aeruginosa PqsR extracted from Escherichia coli Dh5alpha co-expressing lacZ incubated with test compound in presence of pseudomonas quinolone signal (PQS) by ONPG/heterologous reporter gene assay. (In general: In a reporter assay the amount or activity of a reporter protein is the signal.)

Series [2] has as its system Pseudomonas aeruginosa. The experiment in a line: Antivirulence activity against Pseudomonas aeruginosa PA14 assessed as inhibition of pyocyanin biosynthesis incubated for 16 hrs under agitation by photometric analysis. The settings on record: PA14, 16 h. The format is functional, organism-based.
Series [3] can be described thus: Metabolic stability in mouse liver microsomes assessed as half life at 1 uM measured after 30 mins by HPLC-MS/MS analysis. The series is classed as ADME, Microsome.
Series [4] in a line: Kinetic aqueous solubility of the compound in PBS buffer incubated for 5 mins by turbidimetric aqueous solubility assay. To be noted: read-out: Kinetic_solubility. The format is physicochemical.
Series [5] in a line: Lipophilicity, log D of the compound. The settings on record: octanol/water. The format is physicochemical.
A short description of series [6]: Cytotoxicity against human HepG2 cells assessed as viable cells. The series is classed as toxicity, cell-based. To be noted: read-out: LD50 (the source's name).
Series [7] is described as follows: Metabolic stability in human liver S9 fraction assessed as half life. The series is classed as ADME, subcellular.
Series [8] can be described thus: Cytotoxicity against human HepG2 cells assessed as viable cells at 25 uM relative to control. The series is classed as toxicity, cell-based. The settings on record: read-out: Activity.
The nature of series [9]: Cytotoxicity against human HEK293 cells assessed as viable cells. To be noted: read-out: LD50 (the source's name). The format is toxicity, cell-based.
A short description of series [10]: Cytotoxicity against human HEK293 cells assessed as viable cells at 50 uM relative to control. The format is toxicity, cell-based. To be noted: read-out: Activity.
Series [11] has as its target Voltage-gated inwardly rectifying potassium channel KCNH2 (Homo sapiens, UniProt Q12809). The series is described as follows: Inhibition of hERG. The series is classed as toxicity. In general terms: Block of hERG is tested as a sign of cardiac risk.
The nature of series [12]: Plasma protein binding in human. The format is ADME, cell-free. To be noted: read-out: PPB.
Series [13] is described as follows: Plasma protein binding in mouse. The format is ADME, cell-free. The settings on record: read-out: PPB.
For series [14], the target named is Cytochrome P450 3A4 (Homo sapiens, UniProt P08684). The experiment in a line: Inhibition of CYP3A4 (unknown origin). The format is ADME.
Cytochrome P450 3A4, sequence (P08684 whole entry): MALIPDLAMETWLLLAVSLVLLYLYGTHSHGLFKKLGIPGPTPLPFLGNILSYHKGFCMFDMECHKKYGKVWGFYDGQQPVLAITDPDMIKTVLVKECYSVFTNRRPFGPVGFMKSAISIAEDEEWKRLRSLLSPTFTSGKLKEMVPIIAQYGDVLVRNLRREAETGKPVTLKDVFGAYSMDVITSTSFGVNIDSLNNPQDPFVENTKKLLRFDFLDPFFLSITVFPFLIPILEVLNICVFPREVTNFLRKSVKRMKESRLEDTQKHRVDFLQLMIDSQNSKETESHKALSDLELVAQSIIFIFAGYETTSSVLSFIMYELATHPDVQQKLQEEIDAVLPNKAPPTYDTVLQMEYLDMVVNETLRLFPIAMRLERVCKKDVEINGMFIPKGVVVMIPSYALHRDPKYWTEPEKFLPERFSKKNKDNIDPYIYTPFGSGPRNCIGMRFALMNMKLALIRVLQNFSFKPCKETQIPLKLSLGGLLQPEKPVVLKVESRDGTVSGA
Series [15] deals with Cytochrome P450 2D6 (Homo sapiens, UniProt P10635). The series is described as follows: Inhibition of CYP2D6 (unknown origin). The format is ADME.
Cytochrome P450 2D6, sequence (P10635 whole entry): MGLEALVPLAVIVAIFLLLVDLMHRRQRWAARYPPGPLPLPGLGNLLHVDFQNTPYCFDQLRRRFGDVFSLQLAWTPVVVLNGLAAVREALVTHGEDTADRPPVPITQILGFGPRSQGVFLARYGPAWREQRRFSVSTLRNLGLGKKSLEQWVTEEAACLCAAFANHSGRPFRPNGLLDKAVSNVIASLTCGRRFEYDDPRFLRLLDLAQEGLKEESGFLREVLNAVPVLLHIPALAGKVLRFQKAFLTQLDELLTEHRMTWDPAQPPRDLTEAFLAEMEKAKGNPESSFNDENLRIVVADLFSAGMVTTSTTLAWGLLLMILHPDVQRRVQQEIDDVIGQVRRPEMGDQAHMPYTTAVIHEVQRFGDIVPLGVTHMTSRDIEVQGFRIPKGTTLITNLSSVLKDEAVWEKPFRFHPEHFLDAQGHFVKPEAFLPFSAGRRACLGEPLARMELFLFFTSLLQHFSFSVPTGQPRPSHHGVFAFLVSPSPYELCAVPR
Series [16] deals with T2, CYP1A (Homo sapiens, UniProt P04798+P05177).
T2 sequence (P04798 whole entry): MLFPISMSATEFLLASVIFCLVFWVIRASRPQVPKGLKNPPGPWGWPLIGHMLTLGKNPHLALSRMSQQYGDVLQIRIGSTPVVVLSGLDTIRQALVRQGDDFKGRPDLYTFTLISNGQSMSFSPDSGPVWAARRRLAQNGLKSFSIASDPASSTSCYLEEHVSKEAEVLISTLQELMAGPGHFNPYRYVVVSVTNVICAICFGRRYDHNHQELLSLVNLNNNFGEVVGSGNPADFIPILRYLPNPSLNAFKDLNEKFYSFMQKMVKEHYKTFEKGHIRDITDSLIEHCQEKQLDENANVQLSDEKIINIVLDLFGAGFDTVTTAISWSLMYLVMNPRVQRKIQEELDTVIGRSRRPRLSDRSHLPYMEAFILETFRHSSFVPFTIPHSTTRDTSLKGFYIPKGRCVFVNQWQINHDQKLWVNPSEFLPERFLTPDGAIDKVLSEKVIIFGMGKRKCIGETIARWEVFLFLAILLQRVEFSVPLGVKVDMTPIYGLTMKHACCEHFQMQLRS
T2 sequence (P05177 whole entry): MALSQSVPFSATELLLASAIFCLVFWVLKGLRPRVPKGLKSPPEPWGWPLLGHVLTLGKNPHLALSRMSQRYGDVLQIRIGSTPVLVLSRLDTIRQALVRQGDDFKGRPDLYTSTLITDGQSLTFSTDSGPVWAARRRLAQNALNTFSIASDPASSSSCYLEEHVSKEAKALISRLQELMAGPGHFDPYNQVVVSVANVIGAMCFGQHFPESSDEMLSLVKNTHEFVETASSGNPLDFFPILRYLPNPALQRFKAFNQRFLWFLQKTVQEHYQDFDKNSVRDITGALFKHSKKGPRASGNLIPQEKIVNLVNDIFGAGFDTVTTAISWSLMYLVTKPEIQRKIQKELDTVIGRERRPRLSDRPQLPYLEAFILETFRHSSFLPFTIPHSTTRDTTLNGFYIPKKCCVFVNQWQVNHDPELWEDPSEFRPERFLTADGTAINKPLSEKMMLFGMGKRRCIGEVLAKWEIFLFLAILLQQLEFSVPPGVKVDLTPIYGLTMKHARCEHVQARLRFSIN
The series is described as follows: Inhibition of CYP1A (unknown origin). The series is classed as ADME, protein assay.

Series [17] concerns the target Cytochrome P450 2C9 (Homo sapiens, UniProt P11712). The experiment in a line: Inhibition of CYP2C9 (unknown origin). The format is ADME.
The target in series [18] is Cytochrome P450 2C19 (Homo sapiens, UniProt P33261). The experiment in a line: Inhibition of CYP2C19 (unknown origin). The format is ADME.
Cytochrome P450 2C19, sequence (P33261 whole entry): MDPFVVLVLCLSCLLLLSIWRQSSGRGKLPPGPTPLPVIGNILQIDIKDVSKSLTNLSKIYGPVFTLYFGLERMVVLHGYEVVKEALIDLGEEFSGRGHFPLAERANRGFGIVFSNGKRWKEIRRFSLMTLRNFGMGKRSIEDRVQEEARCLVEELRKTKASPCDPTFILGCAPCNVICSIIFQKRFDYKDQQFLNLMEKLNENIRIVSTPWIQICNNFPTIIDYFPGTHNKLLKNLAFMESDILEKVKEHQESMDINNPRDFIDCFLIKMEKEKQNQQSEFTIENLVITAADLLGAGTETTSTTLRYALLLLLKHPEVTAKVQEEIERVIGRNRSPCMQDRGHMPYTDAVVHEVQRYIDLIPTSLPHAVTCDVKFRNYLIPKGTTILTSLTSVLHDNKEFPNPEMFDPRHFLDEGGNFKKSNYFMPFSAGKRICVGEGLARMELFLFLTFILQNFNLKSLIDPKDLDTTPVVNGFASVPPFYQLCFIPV
A short description of series [19]: Selectivity ratio of LD50 for Cytotoxicity against human HEK293 cells to IC50 for Inverse agonist activity at Pseudomonas aeruginosa PqsR. The series is classed as toxicity, cell-based.
A short description of series [20]: Cytotoxicity against human HEK293 cells assessed as viable cells at 25 uM relative to control. The format is toxicity, cell-based. The settings on record: read-out: Activity.

Values after ≈ are worked out from the molar mass of the structure shown.

Voltage-gated inwardly rectifying potassium channel KCNH2, sequence (Q12809 whole entry): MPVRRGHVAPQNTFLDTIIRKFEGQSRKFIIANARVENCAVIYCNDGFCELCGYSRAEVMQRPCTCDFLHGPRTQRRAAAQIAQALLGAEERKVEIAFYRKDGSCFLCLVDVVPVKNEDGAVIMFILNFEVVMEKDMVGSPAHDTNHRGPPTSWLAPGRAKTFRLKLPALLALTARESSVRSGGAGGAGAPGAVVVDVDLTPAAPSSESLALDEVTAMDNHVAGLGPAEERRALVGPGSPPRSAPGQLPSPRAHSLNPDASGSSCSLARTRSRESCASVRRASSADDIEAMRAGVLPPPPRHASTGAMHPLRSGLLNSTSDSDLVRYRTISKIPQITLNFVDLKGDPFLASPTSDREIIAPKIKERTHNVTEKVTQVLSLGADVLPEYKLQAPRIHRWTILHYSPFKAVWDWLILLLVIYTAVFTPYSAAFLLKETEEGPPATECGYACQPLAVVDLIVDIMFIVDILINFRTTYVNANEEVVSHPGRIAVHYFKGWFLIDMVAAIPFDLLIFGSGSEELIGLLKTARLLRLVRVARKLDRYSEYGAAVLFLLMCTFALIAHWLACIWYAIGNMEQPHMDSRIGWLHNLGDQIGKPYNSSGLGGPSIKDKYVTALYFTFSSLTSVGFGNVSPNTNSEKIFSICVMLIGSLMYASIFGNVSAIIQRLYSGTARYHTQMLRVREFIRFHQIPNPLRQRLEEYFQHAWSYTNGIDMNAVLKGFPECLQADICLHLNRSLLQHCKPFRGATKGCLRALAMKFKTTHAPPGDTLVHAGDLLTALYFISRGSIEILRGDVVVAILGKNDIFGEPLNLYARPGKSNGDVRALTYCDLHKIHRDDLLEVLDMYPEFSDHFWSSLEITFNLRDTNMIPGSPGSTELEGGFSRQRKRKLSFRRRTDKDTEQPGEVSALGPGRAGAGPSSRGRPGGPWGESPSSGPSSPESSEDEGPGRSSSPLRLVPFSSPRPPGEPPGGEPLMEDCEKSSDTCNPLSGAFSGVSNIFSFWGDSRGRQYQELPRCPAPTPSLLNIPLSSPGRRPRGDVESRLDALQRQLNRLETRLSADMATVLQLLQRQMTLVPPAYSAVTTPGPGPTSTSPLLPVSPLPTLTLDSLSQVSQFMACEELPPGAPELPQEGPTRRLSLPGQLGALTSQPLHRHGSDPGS
Cytochrome P450 2C9, sequence (P11712 whole entry): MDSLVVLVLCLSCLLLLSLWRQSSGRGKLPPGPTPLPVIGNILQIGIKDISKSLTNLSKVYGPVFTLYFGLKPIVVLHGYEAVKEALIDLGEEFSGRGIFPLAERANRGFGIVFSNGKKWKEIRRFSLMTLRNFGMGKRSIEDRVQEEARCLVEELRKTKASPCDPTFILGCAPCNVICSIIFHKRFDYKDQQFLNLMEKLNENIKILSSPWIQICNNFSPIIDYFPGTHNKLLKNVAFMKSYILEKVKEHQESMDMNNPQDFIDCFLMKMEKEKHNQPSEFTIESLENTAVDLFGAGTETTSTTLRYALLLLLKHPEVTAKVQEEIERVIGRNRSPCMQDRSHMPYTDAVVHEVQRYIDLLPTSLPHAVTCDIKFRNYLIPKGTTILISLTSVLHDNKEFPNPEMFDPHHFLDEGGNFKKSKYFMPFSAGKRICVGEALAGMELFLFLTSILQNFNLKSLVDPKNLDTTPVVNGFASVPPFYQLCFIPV

Broadly, the IC50 is the concentration that inhibits the measured activity by half. Usually half-life stands for the time needed for the level to fall by half in the phase considered. The term logD denotes the decadic logarithm of the distribution of all forms, ionised or not, between an organic phase and buffer at a given pH. As to `CC(C)Oc1ccc(-c2ncc(CNc3ccnc(C#N)c3)s2)cc1Cl`, the concentration for half-maximal inhibition (IC50) is 0.005 µM in series [1]; 0.098 µM in series [2]; 13.2 µM in series [11]; over 25 µM in [14]; over 25 µM in series [15]; over 25 µM in series [16]. Further, the values for the IC50 in series [17] and in [18] were over 25 µM and 21.4 µM, respectively. Also, the half-life at 1 µM in [3] was 11 min. Also, the solubility kinetic at 5 min in series [4] was 7 µM (≈ 2.69 µg/mL). In addition, the logD in series [5] stood at 4.83. For the same compound, the CC50 is over 25 µM in series [6] and about 50 µM in series [9]. In addition, the half-life in series [7] is over 60 min. The viability at 25 µM in series [8] worked out at 59%. Further, the viability at 50 µM in series [10] stood at 51%. Also, the fraction unbound in series [12] and in series [13] was under 0.01 throughout. Besides, the selectivity ratio in series [19] is 10000.

Turning to `FC(F)(F)c1cc(NCc2cnc(-c3ccc(C4CC4)cc3)s2)ccn1`, the IC50 was determined as 0.028 µM in series [1] and 0.179 µM in series [2]. The half-life at 1 µM in series [3] turned out to be 14 min. For the same compound, in series [4], the solubility kinetic at 5 min turned out to be 7 µM (≈ 2.63 µg/mL). In [5], this compound had a logD of 4.19.

For `FC(F)(F)c1cc(NCc2cnc(-c3ccc(Cl)cc3)s2)ccn1`, the IC50 in series [1] stood at 0.067 µM; in series [2], 0.591 µM. For the same compound, in series [3], the half-life at 1 µM amounted to 122 min. Moreover, in series [4], the solubility kinetic at 5 min came out at 36 µM (≈ 13.3 µg/mL). Also, in series [5], the logD was 4.28.

`CC(C)Oc1ccc(-c2ncc(CNc3ccnc(C(F)(F)F)c3)s2)cc1Cl`: the IC50 in series [1] is 0.008 µM; in series [2] it was 0.106 µM; in [11] it was over 25 µM; in series [14], over 25 µM; in series [15] it was over 25 µM; in series [16], over 25 µM. Further, the figures for the IC50 in series [17] and in [18] were 16.4 µM and 17.1 µM, respectively. The half-life at 1 µM in series [3] came out at 20 min. Also, the solubility kinetic at 5 min in series [4] was 7 µM (≈ 3 µg/mL). This compound registered a pH-dependent lipophilicity (logD) in series [5] of 4.51. Besides, the CC50 in [6] and in series [9] was about 25 µM throughout. In series [7], the half-life was over 60 min. The values for the viability at 25 µM in [8] and in series [20] were 49% and 51%, respectively. Besides, the fraction unbound in series [12] and in series [13] was under 0.01 each time.

For `CC(C)Oc1ccc(-c2ncc(CNc3cc(C#N)nc(C(F)(F)F)c3)s2)cc1`, the concentration for half-maximal inhibition (IC50) came out at 0.084 µM in series [1] and 0.226 µM in series [2]. In series [3], the half-life at 1 µM stood at 32 min. In addition, the solubility kinetic at 5 min in [4] amounted to 6 µM (≈ 2.51 µg/mL). Further, in series [5], the pH-dependent lipophilicity (logD) was 5.12.

For the compound `COc1ccc(-c2ncc(CNc3ccnc(C(F)(F)F)c3)s2)cc1Cl`, the concentration for half-maximal inhibition (IC50) in series [1] is 0.04 µM; in series [2], 0.215 µM. In [3], the half-life at 1 µM stood at 1 min. Moreover, the solubility kinetic at 5 min in series [4] was 25 µM (≈ 10 µg/mL). In series [5], this compound yielded a logD of 4.84.

Take `FC(F)(F)c1cc(NCc2cn(-c3ccc(Oc4ccccc4)cc3)nn2)ccn1`: the IC50 in series [2] was 0.2 µM; in [11], over 25 µM; in [15] it was over 25 µM; in series [16] it was over 25 µM; in series [17], over 25 µM. In series [3], the half-life at 1 µM amounted to 10 min. In addition, the solubility kinetic at 5 min in series [4] turned out to be 8 µM (≈ 3.29 µg/mL). For the same compound, in series [5], the logD was found to be 4.22. For the same compound, the CC50 in series [6] and in series [9] was about 25 µM throughout. For the same compound, the half-life in series [7] is over 60 min. Moreover, the viability at 25 µM was 55% in series [8] and 48% in series [20]. Moreover, the fraction unbound in [12] and in [13] was under 0.01 in each case.
